#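 Briefly, cells in 96-well plates were exposed to five compound concentrations for 48 h, and endpoints were estimated by linear interpolation. TGI: concentration producing complete growth inhibition.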
# Experiments:
# Test in all cases: growth of human tumour cells (NCI), 48 h
# MALME-3M melanoma = tested on: MALME-3M melanoma
# SF-295 CNS = tested on: SF-295 CNS
# A498 renal = tested on: A498 renal
# SNB-19 CNS = tested on: SNB-19 CNS
# MCF7 breast = tested on: MCF7 breast
# SF-268 CNS = tested on: SF-268 CNS
# SN12C renal = tested on: SN12C renal
# MDA-N = tested on: MDA-N
# NCI-H226 lung = tested on: NCI-H226 lung
# UO-31 renal = tested on: UO-31 renal
# SW-620 colon = tested on: SW-620 colon
# HOP-92 NSCLC = tested on: HOP-92 NSCLC
# SR leukemia = tested on: SR leukemia
SMILES,TGI (MALME-3M melanoma) [µM],TGI (SF-295 CNS) [µM],TGI (A498 renal) [µM],TGI (SNB-19 CNS) [µM],TGI (MCF7 breast) [µM],TGI (SF-268 CNS) [µM],TGI (SN12C renal) [µM],TGI (MDA-N) [µM],TGI (NCI-H226 lung) [µM],TGI (UO-31 renal) [µM],TGI (SW-620 colon) [µM],TGI (HOP-92 NSCLC) [µM],TGI (SR leukemia) [µM]
CC(C)C(=O)CC(Sc1ccc(N)cc1)c1ccccc1 (stereo not drawn),> 100,> 100,89.1,> 100,47.1,> 100,64.9,35.5,> 100,> 100,34.8,,
Cc1ccc(-n2nnc3c(NNc4ccccc4)n[nH]c(=O)c32)cc1,> 100,> 100,,> 100,> 100,,> 100,,> 100,,,> 100,> 100
C=C[C@@]1(C)CC(=O)[C@]2(O)[C@@]3(C)[C@@H](OC(C)=O)CCC(C)(C)[C@@H]3[C@H](O)[C@H](OC(C)=O)[C@@]2(C)O1,,> 100,> 100,> 100,> 100,,> 100,> 100,> 100,> 100,> 100,> 100,> 100
O=[N+]([O-])/C(C(Cl)=C(Cl)Cl)=C(\Nc1cccc2cccnc12)Sc1ccccc1,64.9,51.4,69.4,> 100,> 100,42,87.7,> 100,86.6,49.7,31.9,,
C[C@@H]1C(=O)O[C@@H]2C[C@@]1(C)[C@@H]1C(=O)C3(O)OC14C2(C)OC(=O)[C@@]4(O)CCC1C3C(O)C=C2CC=CC(=O)[C@@]21C (stereo partly drawn),,83.7,,37.8,> 100,> 100,> 100,> 100,,87.9,> 100,,47.8
CNc1nc2c(C)ccc3nc(N(C)C)nc-3c2n1C,> 10,> 10,> 10,> 10,> 10,> 10,> 10,> 10,> 10,> 10,> 10,> 10,
NS(=O)(=O)c1ccc(NC(=S)/N=C/c2c(O)c3ccccc3[nH]c2=O)cc1,,> 100,,> 100,> 100,> 100,> 100,> 100,> 100,> 100,> 100,> 100,> 100
CC1CC/C(=C\c2ccc(Cl)cc2)C(=O)/C1=C\c1ccc(Cl)cc1 (stereo not drawn),,,17.7,,> 100,> 100,95.5,> 100,,> 100,> 100,> 100,
CN(OC(=O)CC(=O)c1ccccc1)C(=O)Cc1ccccc1,> 100,> 100,> 100,> 100,,> 100,> 100,,> 100,> 100,> 100,,> 100
N/C(=N\Nc1cccc(Cl)c1)c1cccnc1,> 100,> 100,87.4,> 100,> 100,> 100,> 100,,> 100,> 55.7,> 100,> 100,64.9
C=CCN1C(=O)/C(=C/c2ccccc2)N=C1SC/C=C/C,,> 100,> 100,> 100,> 100,> 100,> 100,,> 100,> 100,> 100,55.5,23.3
N#Cc1cccc(Nc2ccccc2SSc2ccccc2Nc2cccc(C#N)c2)c1,15.8,> 21.5,,19.5,16.5,> 21.5,> 21.5,,18.3,,9.19,19,
COc1c2c(c(OC)c3c(=O)cc(C/C(=N/NC(=O)C[n+]4ccccc4)C(=O)Nc4cc(C)ccc4C)oc13)OCO2,> 100,,> 100,> 100,,> 100,> 100,,,> 100,> 100,> 100,
CCCCC1=C(C(=O)N2CCOCC2)C2(OCCO2)C1Cl (stereo not drawn),> 100,> 100,> 100,> 100,> 100,> 100,50.1,39.7,> 100,> 100,89.5,> 100,
COC1=C(OC)C(=O)c2cc(SC)c(=O)c(SC)cc2C1=O,,29.2,66.3,60.7,,28.3,28.7,,28.4,40.5,> 100,48.4,22.7
Cc1c2[nH]c3ccc(Br)cc3c2c(C)c2[nH]ccc(=O)c12,28,28.7,,33.2,,32.6,32.4,,35.9,24.2,25.5,,37.9
CCCOP1(=O)C=C(C)C(Cl)=C(C)C1 (stereo not drawn),,> 100,,> 100,,45.2,58.6,,52.2,> 100,35.5,48.6,61.8
COC(=O)CC(SCCO)SCCO,> 100,> 100,> 100,> 100,,> 100,> 100,> 100,> 100,> 100,> 100,> 100,> 100
CC(SC(=S)N1CCCC1)C(=O)Nc1nnc(-c2ccc(Cl)cc2)o1 (stereo not drawn),84.2,,> 100,> 100,> 100,96.9,59.9,,> 100,63.9,> 100,> 100,
CN1NC2=NCCN=C3NN(C)C(=NCCN=C1S2)S3,,> 100,> 100,> 100,,> 100,> 100,,> 100,,> 100,> 100,> 100
COc1ccc(OC)c2sc(N3C(=O)/C(=C/c4ccc(N(C)C)cc4)N=C3c3ccccc3)nc12,,> 100,> 100,> 100,63.4,> 100,> 100,61.3,,> 100,> 100,> 100,74.6

# Source: PubChem BioAssay (NCI)
